# Results published in PubChem BioAssay AID588428 (NMMLSC, 2011).
# Activity calls are given as the source filed them.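 The calls were made as follows: active = compounds whose thermal stabilization response is above zero, meaning they raise the protein's melting point; inactive = the rest.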
# Biological target: Beta-adrenergic receptor kinase 1 (Homo sapiens) (UniProt P25098)
# Assay: direct GRK2 binders by thermal shift, orthogonal assay for GRK2 aptamer-displacement inhibitor project, biophysical, Thermofluor, set 1 (AID 588428)
# Conditions: purified GRK2 thermal shift, ANS fluorescence; at 200 µM; stronger effect = higher value
# Sequence of Beta-adrenergic receptor kinase 1 (Homo sapiens) (P25098 whole entry, looked up): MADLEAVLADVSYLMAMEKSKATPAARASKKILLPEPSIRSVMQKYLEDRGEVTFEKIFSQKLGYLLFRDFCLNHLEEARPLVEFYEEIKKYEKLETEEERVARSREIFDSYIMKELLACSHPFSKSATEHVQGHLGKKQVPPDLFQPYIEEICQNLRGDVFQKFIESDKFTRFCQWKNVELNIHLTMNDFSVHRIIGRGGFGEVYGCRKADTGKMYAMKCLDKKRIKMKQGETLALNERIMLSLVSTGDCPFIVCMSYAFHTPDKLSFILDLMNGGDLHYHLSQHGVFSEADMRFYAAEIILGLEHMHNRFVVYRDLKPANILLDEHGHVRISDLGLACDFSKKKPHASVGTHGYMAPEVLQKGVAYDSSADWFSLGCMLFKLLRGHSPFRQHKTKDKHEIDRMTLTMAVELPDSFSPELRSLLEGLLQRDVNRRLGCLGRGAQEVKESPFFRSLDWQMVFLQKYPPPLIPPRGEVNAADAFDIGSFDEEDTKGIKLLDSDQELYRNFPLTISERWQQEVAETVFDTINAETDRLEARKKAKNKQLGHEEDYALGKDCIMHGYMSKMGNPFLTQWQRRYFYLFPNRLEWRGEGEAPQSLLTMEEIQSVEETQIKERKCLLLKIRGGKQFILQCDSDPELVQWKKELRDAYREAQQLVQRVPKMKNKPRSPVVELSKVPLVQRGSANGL
row,thermal stabilization response,SMILES
1,-79.1% (inactive),Cc1cc(=O)[nH]c(SCC(=O)NCc2ccco2)n1
2,-35.6% (inactive),CCc1ccccc1NC(=O)CCS(=O)(=O)c1ccc(Br)cc1
3,-176% (inactive),Cc1cc2ccccc2n1CCNC(=O)c1cccs1
4,-114% (inactive),COc1ccc(CNC(=O)CCS(=O)(=O)c2ccc(Br)cc2)cc1
5,108%,Cc1ccccc1NC(=O)CCS(=O)(=O)c1ccc(Br)cc1
6,-152% (inactive),O=C(O)C1CC(=O)N(c2ccc3c(c2)OCCO3)C1 (stereo not given)
7,-5.78% (inactive),Cc1cccc(N2CCN(C(=O)CCS(=O)(=O)c3ccc(Br)cc3)CC2C)c1 (stereo not given)
8,-75% (inactive),O=C(CCS(=O)(=O)c1ccc(Br)cc1)Nc1cc(F)ccc1F
9,-53% (inactive),O=C(CCS(=O)(=O)c1ccc(Br)cc1)NCCc1ccc(Cl)cc1
10,-112% (inactive),CCOc1ccc(CCNC(=O)CCS(=O)(=O)c2ccc(Br)cc2)cc1OCC
